Test results reported in ChEMBL document CHEMBL1201862, “PubChem BioAssay data set” (2004).
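Results reflect a 48-hour exposure of cells in 96-well plates to compound at five concentrations. Abbreviation: GI50, concentration required for 50% inhibition of growth.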 The source made the active and inactive calls. Cut-off read from the data, not from the text of the source: active = GI50 up to about 1.1 µM and inactive = higher.

Tests used:
Test in all cases: inhibition of tumour cell growth, NCI panel, 48 h
EKVX = tested on: EKVX
K562 = tested on: K562
Malme-3M = tested on: Malme-3M
NCI-H226 = tested on: NCI-H226
HOP-92 = tested on: HOP-92
UACC-62 = tested on: UACC-62
OVCAR-8 = tested on: OVCAR-8
CAKI-1 = tested on: CAKI-1
SF-539 = tested on: SF-539
SN12C = tested on: SN12C
NCI-H522 = tested on: NCI-H522
HCT-116 = tested on: HCT-116
M14 = tested on: M14
OVCAR-5 = tested on: OVCAR-5
OVCAR-4 = tested on: OVCAR-4
HOP-62 = tested on: HOP-62
UACC-257 = tested on: UACC-257

Row | SMILES | GI50 (EKVX) | GI50 (K562) | GI50 (Malme-3M) | GI50 (NCI-H226) | GI50 (HOP-92) | GI50 (UACC-62) | GI50 (OVCAR-8) | GI50 (CAKI-1) | GI50 (SF-539) | GI50 (SN12C) | GI50 (NCI-H522) | GI50 (HCT-116) | GI50 (M14) | GI50 (OVCAR-5) | GI50 (OVCAR-4) | GI50 (HOP-62) | GI50 (UACC-257)
1 | CCOc1ccc(/C(C=O)=C(\Cl)c2ccc(OC)c(OC)c2)cc1 | > 100 µM (inactive) | > 100 µM (inactive) | > 100 µM (inactive) | > 100 µM (inactive) | > 100 µM (inactive) | 68.9 µM (inactive) | > 100 µM (inactive) | > 100 µM (inactive) | 83.2 µM (inactive) | > 100 µM (inactive) | > 100 µM (inactive) | > 100 µM (inactive) | > 100 µM (inactive) |  |  |  | 
2 | O=C(c1ccccc1)[C@H]1Nc2ccc(Cl)cc2[C@H]2CCC[C@@H]12 |  | 15.4 µM (inactive) | 22 µM (inactive) | 13.6 µM (inactive) |  | 25.8 µM (inactive) | 23.3 µM (inactive) | 59.8 µM (inactive) | 33.2 µM (inactive) | 14.6 µM (inactive) | 23.3 µM (inactive) | 13.2 µM (inactive) | 11.7 µM (inactive) | 23.7 µM (inactive) | 26.2 µM (inactive) | > 100 µM (inactive) | 
3 | O=C(/C=N/c1ccccc1S)c1ccco1 | 10.7 µM (inactive) | 18.2 µM (inactive) | 18.9 µM (inactive) |  |  | 15.5 µM (inactive) | 11.5 µM (inactive) | 19.6 µM (inactive) | 14.1 µM (inactive) | 8.09 µM (inactive) | 15.5 µM (inactive) | 3.15 µM (inactive) |  |  | 13.4 µM (inactive) | 3.66 µM (inactive) | 17.7 µM (inactive)
4 | CCOC(=O)C(C)c1c(C(=O)c2ccc(C)nc2)c2ccccc2n1C (centres undefined) | > 100 µM (inactive) | > 100 µM (inactive) | > 100 µM (inactive) |  | 82.8 µM (inactive) | > 100 µM (inactive) | > 100 µM (inactive) | > 100 µM (inactive) |  | > 100 µM (inactive) | 79.6 µM (inactive) |  | > 100 µM (inactive) | > 100 µM (inactive) | > 100 µM (inactive) | > 100 µM (inactive) | > 100 µM (inactive)
5 | Cn1cc/c(=N\N=c2/ccn(C)c3ccccc23)c2ccccc21 | 14.7 µM (inactive) | 4.44 µM (inactive) | 17.2 µM (inactive) | 11.7 µM (inactive) |  | 16.2 µM (inactive) | 14.9 µM (inactive) | 17.9 µM (inactive) | 15.9 µM (inactive) | 16.9 µM (inactive) | 14.6 µM (inactive) | 11.1 µM (inactive) | 16.9 µM (inactive) | 15.8 µM (inactive) | 12.7 µM (inactive) | 13.1 µM (inactive) | 13.9 µM (inactive)
6 | CCNC(=O)C(O)C1(O)CCC2[C@@H]3CCC4=CC(=O)C=C[C@]4(C)C3[C@@H](O)C[C@@]21C (some centres undefined) | > 100 µM (inactive) | > 91 µM (inactive) | > 100 µM (inactive) | > 87.5 µM (inactive) |  | > 100 µM (inactive) | > 100 µM (inactive) | > 100 µM (inactive) | > 100 µM (inactive) | 53.2 µM (inactive) | > 100 µM (inactive) | > 100 µM (inactive) | > 100 µM (inactive) | > 100 µM (inactive) | > 100 µM (inactive) | > 100 µM (inactive) | > 100 µM (inactive)
7 | Clc1ccc(C[P+](c2ccccc2)(c2ccccc2)c2ccccc2)c(Cl)c1 | 3.44 µM (inactive) |  | 3.87 µM (inactive) | 2.34 µM (inactive) | 1.71 µM (inactive) | 2.4 µM (inactive) | 2.75 µM (inactive) |  | 3.06 µM (inactive) | 2.7 µM (inactive) | 1.67 µM (inactive) | 1.63 µM (inactive) | 3.18 µM (inactive) | 2.37 µM (inactive) | 4.04 µM (inactive) | 2.79 µM (inactive) | 1.04 µM (active)
8 | Cc1ccc(S(=O)(=O)OCOS(=O)(=O)c2ccc(C)cc2)cc1 | > 100 µM (inactive) | > 100 µM (inactive) | > 100 µM (inactive) |  |  | > 10 µM (inactive) | > 100 µM (inactive) |  | > 100 µM (inactive) | > 100 µM (inactive) | > 100 µM (inactive) | > 100 µM (inactive) | > 100 µM (inactive) | > 100 µM (inactive) |  | > 100 µM (inactive) | > 100 µM (inactive)
9 | COc1cccc(NC(=O)CC(=O)N2N=C(N3c4ccccc4Sc4ccccc43)CC2c2ccccc2)c1 (centres undefined) | > 100 µM (inactive) |  | > 100 µM (inactive) | > 100 µM (inactive) | > 100 µM (inactive) | > 100 µM (inactive) | > 100 µM (inactive) | > 100 µM (inactive) | > 100 µM (inactive) | > 100 µM (inactive) |  | > 100 µM (inactive) | > 100 µM (inactive) | > 100 µM (inactive) | > 100 µM (inactive) | > 100 µM (inactive) | > 100 µM (inactive)
